Assay results reported in PMC11714206, “Massively Parallel Screening of Toll/Interleukin‐1 Receptor (TIR)‐Derived Peptides Reveals Multiple Toll‐Like Receptors (TLRs)‐Targeting Immunomodulatory Peptides” (Advanced Science, 2024).
One block for each sequence: values may come before it.

Target: T1, MAL^TIR (Homo sapiens, UniProt P58753)
T1 construct: MAL (residues 79–221); 6xHis; made in house; host or cells: E. coli BL21 (DE3)
Assay: T‐Surf phage library (P8 and P3) selection against MAL^TIR, four rounds, NGS read counts
Type: binding
Conditions: for P3_MAL Rank (after) / P3_MAL Rank (before): P3 library; for P8_MAL Rank (after) / P8_MAL Rank (before): P8 library
Summary of the method: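 Read counts come from NGS of phage pools enriched over four selection rounds on the plate‐coated TIR domain (5 µg mL^−1). Each round: 1 h phage binding at room temperature after 0.2% BSA blocking, Tween washes, acid elution, amplification in E. coli TG1 with M13KO7 helper.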

[1] = 4R selection against MAL, rank after grouping
[2] = 4R selection against MAL, rank before grouping
[3] = P3_MAL: rank by count after grouping
[4] = P3_MAL: rank by count before grouping
[5] = selection against MAL, rank by count after grouping
[6] = selection against MAL, rank by count before grouping
[7] = selection against MAL TIR, rank by count after grouping
[8] = selection against MAL TIR, rank by count before grouping
[9] = P8_MAL: rank by count after grouping
[10] = P8_MAL: rank by count before grouping
[11] = selection against MAL, rank after grouping
[12] = selection against MAL, rank before grouping

T1 sequence (P58753 79-221): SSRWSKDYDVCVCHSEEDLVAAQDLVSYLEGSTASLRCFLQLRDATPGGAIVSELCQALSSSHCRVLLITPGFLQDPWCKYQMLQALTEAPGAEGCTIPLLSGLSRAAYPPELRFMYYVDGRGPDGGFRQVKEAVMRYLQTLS

P3_MAL Rank (after) [1]: 649 | P3_MAL Rank (before) [2]: 2355
Sequence: RGFLEPLRHHLQAKEQ

P3_MAL Rank (after) [1]: 673 | P3_MAL Rank (before) [2]: 3697
Sequence: KMQKWKDALTKVASL

Rank (after) [3]: 458 | Rank (before) [4]: 3753
Sequence: KNLFNELVRKNLRTFM

P8_MAL Rank (after) [5]: 708 | P8_MAL Rank (before) [6]: 1656
Sequence: AFFWAICIMRWCRRAF

Rank (after) [3]: 160 | Rank (before) [4]: 3232
Sequence: RSFRDGLWRLLELSKK

P3_MAL Rank (after) [7]: 202 | P3_MAL Rank (before) [8]: 2061
Sequence: ESILNQLRRSSQSMR

P3_MAL Rank (after) [7]: 205 | P3_MAL Rank (before) [8]: 2392
Sequence: RGFLSHLSNLLQAKDH

P3_MAL Rank (after) [1]: 585 | P3_MAL Rank (before) [2]: 2391
Sequence: RGFLSHLSHPLQAKDP

Rank (after) [9]: 432 | Rank (before) [10]: 2608
Sequence: TFLGHLHNALVQAGNH

P3_MAL Rank (after) [1]: 603 | P3_MAL Rank (before) [2]: 3225
Sequence: SKDYAQSAWALAEHEKR

Rank (after) [3]: 473 | Rank (before) [4]: 3418
Sequence: NQWHNALAAAANLLGL

P8_MAL Rank (after) [1]: 615 | P8_MAL Rank (before) [2]: 1508
Sequence: YFLHLLLFSRPETVYI

P8_MAL Rank (after) [7]: 238 | P8_MAL Rank (before) [8]: 800
Sequence: YLLLSVFQTIFARRTE

P3_MAL Rank (after) [5]: 700 | P3_MAL Rank (before) [6]: 2346
Sequence: RVFLSHPRHHLQAKDP

P8_MAL Rank (after) [1]: 597 | P8_MAL Rank (before) [2]: 1467
Sequence: YFLHFLLFNRPETNYI

P3_MAL Rank (after) [11]: 551 | P3_MAL Rank (before) [12]: 2427
Sequence: RGVLSRLRHHLQAKDH

P3_MAL Rank (after) [7]: 212 | P3_MAL Rank (before) [8]: 1517
Sequence: YLKWGYPGLWDRLRFA

Rank (after) [3]: 433 | Rank (before) [4]: 3057
Sequence: SLFLSSRFKDDADLVGQ

P3_MAL Rank (after) [1]: 635 | P3_MAL Rank (before) [2]: 3210
Sequence: SSCREGLWRLLELCKK

P8_MAL Rank (after) [7]: 234 | P8_MAL Rank (before) [8]: 876
Sequence: DPQDLEWFYERLFSQM

P8_MAL Rank (after) [11]: 558 | P8_MAL Rank (before) [12]: 2443
Sequence: SDFIQLINLLVKPKII

Rank (after) [3]: 127 | Rank (before) [4]: 275
Sequence: GFLSHLRHHLQAKDH

P3_MAL Rank (after) [5]: 694 | P3_MAL Rank (before) [6]: 1290
Sequence: WHFHVRLCLRKLLQAM

Rank (after) [3]: 168 | Rank (before) [4]: 528
Sequence: VGWFLHTLSQHILKREK

P8_MAL Rank (after) [1]: 667 | P8_MAL Rank (before) [2]: 2233
Sequence: RNFVAHLFQALANKAI

Rank (after) [3]: 163 | Rank (before) [4]: 685
Sequence: KEVEGWRDALSSIASRP

Rank (after) [9]: 454 | Rank (before) [10]: 2074
Sequence: LFFWEILKQLLRSAGR

P3_MAL Rank (after) [11]: 494 | P3_MAL Rank (before) [12]: 3627
Sequence: KLQECRDTLRKIADFF

P8_MAL Rank (after) [11]: 532 | P8_MAL Rank (before) [12]: 1981
Sequence: DFSHFWLFEAGGDAAI

Rank (after) [9]: 104 | Rank (before) [10]: 2327
Sequence: PLLYTFLINLTHPTNF

P8_MAL Rank (after) [1]: 605 | P8_MAL Rank (before) [2]: 1630
Sequence: AFFWAQLKSVLGNPAR

Rank (after) [3]: 395 | Rank (before) [4]: 2364
Sequence: RGFLSHLLLHLQAKDH

P8_MAL Rank (after) [7]: 191 | P8_MAL Rank (before) [8]: 1739
Sequence: AFFGAQLKSVLRNPTM

Rank (after) [3]: 425 | Rank (before) [4]: 1373
Sequence: YAFTGHLPRYLVQRGG

P8_MAL Rank (after) [5]: 711 | P8_MAL Rank (before) [6]: 1142
Sequence: WFYDRIVSLNGRDKQV

Rank (after) [3]: 391 | Rank (before) [4]: 1403
Sequence: YAFTGHLHRYLVQRDM

Rank (after) [3]: 396 | Rank (before) [4]: 2943
Sequence: MSHLYQGLQHRGIFTF

P3_MAL Rank (after) [5]: 708 | P3_MAL Rank (before) [6]: 1810
Sequence: AWFRESLSRRLKGLLT

P3_MAL Rank (after) [1]: 609 | P3_MAL Rank (before) [2]: 2638
Sequence: PESGKLASGAGKSGQT

P3_MAL Rank (after) [5]: 677 | P3_MAL Rank (before) [6]: 1176
Sequence: FLNFRAWMCVTIFWA

P3_MAL Rank (after) [1]: 665 | P3_MAL Rank (before) [2]: 3633
Sequence: KRISEQLRPALNVRRP

P8_MAL Rank (after) [1]: 659 | P8_MAL Rank (before) [2]: 1999
Sequence: DTILKKGEGIAPELLR

P3_MAL Rank (after) [11]: 530 | P3_MAL Rank (before) [12]: 2248
Sequence: LKWGDPYFWRKIRYAM

Population (P8_MAL pool: P8 T-Surf phage library, 4th round of selection against MAL TIR, share of NGS reads): 0.00371%
Sequence: WFYEHLVSLILRDTKV

P8_MAL Rank (after) [1]: 661 | P8_MAL Rank (before) [2]: 2142
Sequence: LFLWASLKQLLRSANC

P8_MAL Rank (after) [1]: 595 | P8_MAL Rank (before) [2]: 1130
Sequence: WFYGRLVSLMLRDAKR

P8_MAL Rank (after) [11]: 533 | P8_MAL Rank (before) [12]: 1578
Sequence: AFFLAQLKSVLGKPTM

Rank (after) [9]: 188 | Rank (before) [10]: 742
Sequence: WFYERLVSLILRIPK

P3_MAL Rank (after) [5]: 710 | P3_MAL Rank (before) [6]: 3685
Sequence: KMQKWKDALYEAAN

Rank (after) [3]: 434 | Rank (before) [4]: 2032
Sequence: ERLFSEPLNVNKDLLG

P8_MAL Rank (after) [11]: 487 | P8_MAL Rank (before) [12]: 1524
Sequence: YVLHFLLFSRREPEYI

P3_MAL Rank (after) [7]: 243 | P3_MAL Rank (before) [8]: 2479
Sequence: RLLNWKEARHQFHSWV

P3_MAL Rank (after) [5]: 687 | P3_MAL Rank (before) [6]: 1963
Sequence: DSHSSRFKEDAELGGQ
